Legend:
[1] = biological target: T1, human Nav1.7 (Homo sapiens, UniProt Q15858); test: PatchXpress automated patch-clamp, inactivated state block of Nav1.7; format: cell-based; settings: channels stably expressed in HEK 293 cells, 22° C., read-out: potency for the Nav 1.7 sodium ion channel (as measured by PatchXpress)
T1 construct: expressed in transfected cells
Protocol: (§1) Compounds were tested on human Nav1.7 and Nav1.5 channels stably expressed in HEK 293 cells. Activity toward Nav 1.7 and Nav 1.5 channels was assessed using the following assay methodology.
(§2) Sodium Current Measurements on the PatchXpress 7000®:
(§3) To measure inactivated state block of sodium channels, test compounds were characterized in an automated PatchXpress® assay (Molecular Devices) using a double-pulse protocol on human Nav1.7 and Nav1.5 channels stably expressed in HEK 293 cells. Cells were held at a potential 20 mV negative to V0.5 inact. An 8000 ms pre-pulse 7 mV positive to V0.5 inact was given followed by a hyperpolarizing 2 ms pulse to −120 mV and a 20 ms test pulse to −20 mV. Protocol was applied to cells in the absence, presence of compound and after washout. The temperature of PatchXpress instruments was maintained at 22° C. The following recording solutions were used. Internal solution (mM): 30 CsCl, 5 HEPES, 10 EGTA, 120 CsF, 5 NaF, 2 MgCl2. External solution (mM): 120 NMDG, 40 NaCl, 1 KCl, 0.5 MgCl2, 5 HEPES, 2.7 CaCl2.
(§4) For all electrophysiology experiments, offline analysis was used to correct for current rundown and to determine percent inhibition as a function of drug concentration. IC50 values were determined by fitting to the Hill equation.

[2] = biological target: T2, human Nav1.5 (Homo sapiens, UniProt Q14524); test: PatchXpress automated patch-clamp, inactivated state block of Nav1.5 (selectivity); format: cell-based; settings: determined by PatchXpress measurement, HEK 293 cells
T2 construct: expressed in transfected cells
T2 sequence (Q14524 whole entry): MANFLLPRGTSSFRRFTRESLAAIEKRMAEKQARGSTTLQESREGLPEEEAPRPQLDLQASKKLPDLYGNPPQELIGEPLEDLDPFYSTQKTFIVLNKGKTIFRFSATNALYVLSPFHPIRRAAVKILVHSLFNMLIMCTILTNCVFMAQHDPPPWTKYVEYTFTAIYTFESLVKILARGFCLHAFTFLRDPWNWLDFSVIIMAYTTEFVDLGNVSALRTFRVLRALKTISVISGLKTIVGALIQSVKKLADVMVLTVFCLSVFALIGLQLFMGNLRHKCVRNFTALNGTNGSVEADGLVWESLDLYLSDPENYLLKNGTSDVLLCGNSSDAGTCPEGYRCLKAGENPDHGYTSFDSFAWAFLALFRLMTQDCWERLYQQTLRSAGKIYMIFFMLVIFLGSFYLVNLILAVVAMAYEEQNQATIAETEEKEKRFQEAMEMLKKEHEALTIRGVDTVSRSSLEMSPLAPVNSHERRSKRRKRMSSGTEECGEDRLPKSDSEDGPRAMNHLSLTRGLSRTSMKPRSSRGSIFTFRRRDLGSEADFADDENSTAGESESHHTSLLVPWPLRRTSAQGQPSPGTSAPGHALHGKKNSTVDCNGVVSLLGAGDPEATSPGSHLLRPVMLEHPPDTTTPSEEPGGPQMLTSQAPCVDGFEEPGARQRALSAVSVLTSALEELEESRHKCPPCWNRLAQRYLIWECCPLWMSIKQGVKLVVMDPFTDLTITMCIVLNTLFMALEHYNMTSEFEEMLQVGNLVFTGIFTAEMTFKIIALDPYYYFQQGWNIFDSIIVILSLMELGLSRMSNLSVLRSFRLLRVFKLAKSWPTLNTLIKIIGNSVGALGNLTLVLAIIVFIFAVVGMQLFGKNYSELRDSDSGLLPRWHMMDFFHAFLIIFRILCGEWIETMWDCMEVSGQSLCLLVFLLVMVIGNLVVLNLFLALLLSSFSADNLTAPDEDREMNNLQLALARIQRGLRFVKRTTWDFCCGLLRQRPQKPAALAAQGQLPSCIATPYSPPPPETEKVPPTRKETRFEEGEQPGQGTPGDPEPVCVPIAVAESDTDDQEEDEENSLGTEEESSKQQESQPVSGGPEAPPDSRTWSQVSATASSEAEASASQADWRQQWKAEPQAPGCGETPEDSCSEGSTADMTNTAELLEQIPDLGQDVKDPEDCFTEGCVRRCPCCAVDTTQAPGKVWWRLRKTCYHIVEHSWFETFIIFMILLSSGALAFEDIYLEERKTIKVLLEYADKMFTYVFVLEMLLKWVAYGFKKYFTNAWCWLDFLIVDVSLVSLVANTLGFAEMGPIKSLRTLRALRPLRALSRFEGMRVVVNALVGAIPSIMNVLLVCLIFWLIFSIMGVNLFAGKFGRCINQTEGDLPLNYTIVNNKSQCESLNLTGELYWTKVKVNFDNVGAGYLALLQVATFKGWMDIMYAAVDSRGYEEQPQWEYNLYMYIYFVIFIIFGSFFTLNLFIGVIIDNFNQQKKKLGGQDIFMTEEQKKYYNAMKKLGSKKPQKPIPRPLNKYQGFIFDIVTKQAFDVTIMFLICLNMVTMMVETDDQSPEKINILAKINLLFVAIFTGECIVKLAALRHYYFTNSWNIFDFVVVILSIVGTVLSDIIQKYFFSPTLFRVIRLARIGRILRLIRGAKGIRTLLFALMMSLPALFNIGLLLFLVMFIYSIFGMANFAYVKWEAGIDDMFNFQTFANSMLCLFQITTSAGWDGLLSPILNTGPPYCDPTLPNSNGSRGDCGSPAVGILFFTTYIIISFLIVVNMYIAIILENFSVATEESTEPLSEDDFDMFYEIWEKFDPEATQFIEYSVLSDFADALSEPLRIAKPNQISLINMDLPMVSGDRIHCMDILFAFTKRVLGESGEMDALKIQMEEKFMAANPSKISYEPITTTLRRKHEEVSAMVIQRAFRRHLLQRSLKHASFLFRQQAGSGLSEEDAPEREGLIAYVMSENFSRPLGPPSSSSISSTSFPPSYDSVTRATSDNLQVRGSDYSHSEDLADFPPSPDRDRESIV
Protocol: as §1, §2, §3, §4

T1 sequence (Q15858 whole entry): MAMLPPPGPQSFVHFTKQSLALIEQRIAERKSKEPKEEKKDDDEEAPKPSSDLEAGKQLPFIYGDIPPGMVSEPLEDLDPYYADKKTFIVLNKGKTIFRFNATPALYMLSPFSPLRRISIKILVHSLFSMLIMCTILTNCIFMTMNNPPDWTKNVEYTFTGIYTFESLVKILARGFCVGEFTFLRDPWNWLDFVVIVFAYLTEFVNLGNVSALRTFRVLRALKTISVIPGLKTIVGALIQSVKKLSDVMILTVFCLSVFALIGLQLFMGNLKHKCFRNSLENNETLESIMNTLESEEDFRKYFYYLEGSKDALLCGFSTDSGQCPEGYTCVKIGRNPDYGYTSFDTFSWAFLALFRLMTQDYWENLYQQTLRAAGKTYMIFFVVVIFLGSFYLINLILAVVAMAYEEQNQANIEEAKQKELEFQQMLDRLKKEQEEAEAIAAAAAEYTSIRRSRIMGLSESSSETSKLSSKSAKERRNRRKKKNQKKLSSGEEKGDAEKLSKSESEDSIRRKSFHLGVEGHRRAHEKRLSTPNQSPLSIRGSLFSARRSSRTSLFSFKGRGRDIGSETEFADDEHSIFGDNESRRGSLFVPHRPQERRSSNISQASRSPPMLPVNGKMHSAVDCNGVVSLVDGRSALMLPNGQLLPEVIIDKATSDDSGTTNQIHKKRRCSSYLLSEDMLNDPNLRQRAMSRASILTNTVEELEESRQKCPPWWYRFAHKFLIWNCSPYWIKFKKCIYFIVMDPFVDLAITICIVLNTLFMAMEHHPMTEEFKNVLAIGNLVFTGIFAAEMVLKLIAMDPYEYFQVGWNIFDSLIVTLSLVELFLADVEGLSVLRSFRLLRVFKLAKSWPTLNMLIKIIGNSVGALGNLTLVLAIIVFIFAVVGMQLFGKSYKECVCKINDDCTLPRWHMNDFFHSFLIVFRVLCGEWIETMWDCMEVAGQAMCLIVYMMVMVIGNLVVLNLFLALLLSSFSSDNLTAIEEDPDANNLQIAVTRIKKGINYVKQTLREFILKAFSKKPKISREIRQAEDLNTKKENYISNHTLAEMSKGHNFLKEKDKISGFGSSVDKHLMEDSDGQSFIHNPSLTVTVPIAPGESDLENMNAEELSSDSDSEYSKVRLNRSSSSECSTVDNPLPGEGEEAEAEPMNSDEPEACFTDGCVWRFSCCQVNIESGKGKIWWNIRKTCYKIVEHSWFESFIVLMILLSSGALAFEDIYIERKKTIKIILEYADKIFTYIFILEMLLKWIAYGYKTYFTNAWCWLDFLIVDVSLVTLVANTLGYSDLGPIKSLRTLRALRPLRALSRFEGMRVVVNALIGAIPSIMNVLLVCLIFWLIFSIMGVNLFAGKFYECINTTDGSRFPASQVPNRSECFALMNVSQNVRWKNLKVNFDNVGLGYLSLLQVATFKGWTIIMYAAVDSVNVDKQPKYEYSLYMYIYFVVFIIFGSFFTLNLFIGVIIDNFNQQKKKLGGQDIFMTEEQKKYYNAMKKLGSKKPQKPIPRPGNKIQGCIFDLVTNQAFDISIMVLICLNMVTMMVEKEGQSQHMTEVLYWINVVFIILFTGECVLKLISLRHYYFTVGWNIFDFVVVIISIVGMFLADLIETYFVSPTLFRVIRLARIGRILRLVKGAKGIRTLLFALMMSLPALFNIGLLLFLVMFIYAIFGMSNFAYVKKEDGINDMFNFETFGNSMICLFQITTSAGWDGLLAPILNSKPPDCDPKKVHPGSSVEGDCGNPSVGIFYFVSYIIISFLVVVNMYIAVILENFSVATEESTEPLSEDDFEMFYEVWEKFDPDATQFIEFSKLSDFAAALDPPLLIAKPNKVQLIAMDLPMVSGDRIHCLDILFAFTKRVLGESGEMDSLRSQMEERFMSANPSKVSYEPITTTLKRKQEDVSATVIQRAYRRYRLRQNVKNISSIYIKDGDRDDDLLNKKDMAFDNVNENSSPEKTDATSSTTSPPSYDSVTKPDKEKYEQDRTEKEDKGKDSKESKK

C[C@H]1CC[C@]2(CNc3cc(F)c(S(=O)(=O)Nc4nccs4)cc3Cl)CCCN12 (single isomer, unassigned) [Ex11-8-A]
IC50 [1]: 35 nM | ratio of Nav1.7 potency:Nav 1.5 potency [2]: 305

C[C@@H]1CC[C@@]2(CNc3cc(F)c(S(=O)(=O)Nc4nccs4)cc3Cl)CCCN12 (single isomer, unassigned) [Ex11-8-B]
IC50 [1]: 6 nM | ratio of Nav1.7 potency:Nav 1.5 potency [2]: 2533

CC1CCC2(CNc3ccc(S(=O)(=O)Nc4nccs4)cc3C(F)(F)F)CCCN12 (single isomer, unassigned) [Ex11-10-A, 4-((((3S,7aS or 3R,7aR)-3-methyl-hexahydro-1H-pyrrolizin-7a-yl)methyl)-amino)-N-(thiazol-2-yl)-3-(trifluoromethyl)-benzenesulfonamide]
IC50 [1]: 22 nM | ratio of Nav1.7 potency:Nav 1.5 potency [2]: 1376

CC1CCC2(CNc3ccc(S(=O)(=O)Nc4nccs4)cc3C(F)(F)F)CCCN12 (single isomer, unassigned) [Ex11-10-B, 4-((((3R,7aR or 3S,7aS)-3-methylhexahydro-1H-pyrrolizin-7a-yl)methyl)-amino)-N-(thiazol-2-yl)-3-(trifluoromethyl)-benzenesulfonamide]
IC50 [1]: 40 nM | ratio of Nav1.7 potency:Nav 1.5 potency [2]: 755

CC1CCC2(CNc3ccc(S(=O)(=O)Nc4ncc(F)s4)cc3Cl)CCCN12 (single isomer, unassigned) [Ex11-12-A, 3-chloro-N-(5-fluorothiazol-2-yl)-4-((((3S,7aS or 3R,7aR)-3-methylhexahydro-1H-pyrrolizin-7a-yl)methyl)amino)benzene-sulfonamide]
IC50 [1]: 22 nM | ratio of Nav1.7 potency:Nav 1.5 potency [2]: 1335

CC1CCC2(CNc3ccc(S(=O)(=O)Nc4ncc(F)s4)cc3Cl)CCCN12 (single isomer, unassigned) [Ex11-12-B, 3-chloro-N-(5-fluorothiazol-2-yl)-4-((((3R,7aR or 3S,7aS)-3-methylhexahydro-1H-pyrrolizin-7a-yl)methyl)-amino)benzene-sulfonamide]
IC50 [1]: 30 nM | ratio of Nav1.7 potency:Nav 1.5 potency [2]: 1017

O=S(=O)(Nc1nccs1)c1cc(Cl)c(NC[C@@]23CCCN2CC2(CC2)C3)cc1F (single isomer, unassigned) [Ex13-10-A]
IC50 [1]: 126 nM | ratio of Nav1.7 potency:Nav 1.5 potency [2]: 113

O=S(=O)(Nc1nccs1)c1cc(Cl)c(NC[C@]23CCCN2CC2(CC2)C3)cc1F (single isomer, unassigned) [Ex13-10-B]
IC50 [1]: 16 nM | ratio of Nav1.7 potency:Nav 1.5 potency [2]: 406

O=S(=O)(Nc1ncc(F)s1)c1ccc(NCC23CCCN2CC2(CC2)C3)c(C(F)(F)F)c1 (single isomer, unassigned) [Ex13-12-A, (S or R)-N-(5-fluorothiazol-2-yl)-4-(((hexahydrospiro-[cyclopropane-1,2′-pyrrolizin]-7a′-yl)methyl)-amino)-3-(trifluoromethyl)-benzenesulfonamide]
IC50 [1]: 22 nM | ratio of Nav1.7 potency:Nav 1.5 potency [2]: 756

O=S(=O)(Nc1ncc(F)s1)c1ccc(NCC23CCCN2CC2(CC2)C3)c(C(F)(F)F)c1 (single isomer, unassigned) [Ex13-12-B, (R or S)-N-(5-fluorothiazol-2-yl)-4-(((hexahydrospiro-[cyclopropane-1,2′-pyrrolizin]-7a′-yl)methyl)-amino)-3-(trifluoromethyl)-benzenesulfonamide]
IC50 [1]: 7 nM | ratio of Nav1.7 potency:Nav 1.5 potency [2]: 3240

O=S(=O)(Nc1nccs1)c1cc(Cl)c(NC[C@@]23CCCN2[C@H](CO)CC3)cc1F (single isomer, unassigned) [Ex14-11-A]
IC50 [1]: 28 nM | ratio of Nav1.7 potency:Nav 1.5 potency [2]: 1062

O=S(=O)(Nc1nccs1)c1cc(Cl)c(NC[C@]23CCCN2[C@@H](CO)CC3)cc1F (single isomer, unassigned) [Ex14-11-B]
IC50 [1]: 10 nM | ratio of Nav1.7 potency:Nav 1.5 potency [2]: 3045

COc1ccc(C[C@H]2CN3CCC[C@@]3(CNc3cc(F)c(S(=O)(=O)Nc4nccs4)cc3Cl)C2)cc1 (single isomer, unassigned) [Ex15-10-A]
IC50 [1]: 2 nM | ratio of Nav1.7 potency:Nav 1.5 potency [2]: 918

Reference: patent US9586968B2, “Bicycloamine-substituted-N-benzenesulfonamide compounds with selective activity in voltage-gated sodium channels” (Merck Sharp & Dohme Corp., priority 2013, dated 2017)
